“Also recorded” adds a separate entry of the source. Read-outs that look alike come from different tables or passages of the source.
Columns and labels:
[1] = tested on: progesterone-induced endometrial proliferation; assay: AntiMcGinty test; assay type: in vivo, rabbit; details: for ANTIPROGESTATIONAL Anti-McGinty: relative potency, CDB-2914 = 100 (assigned), rabbit; for ANTIPROGESTATIONAL Anti-McGinty / ANTIPROGESTATIONAL ACTIVITY ANTI-MCGINITY: intraluminal; for antiprogestational activity compared with the lead compound / standard, in words: antiMcGinty (and antiClauberg), versus CDB-2914 (69B); for ANTIPROGESTATIONAL ACTIVITY ANTI-MCGINITY: estrogen-primed immature rabbits, CDB-2477 = 1.0 (assigned)
Description: AntiMcGinty Test (McGinty, et al., Endocrinology, 24:829-832 (1939))
Immature female rabbits of the New Zealand White breed (approx. 1 kg body weight) were maintained under standard laboratory conditions and received a subcutaneous injection of 5 μg estradiol in 10% ethanol/sesame oil daily for 6 consecutive days. Twenty-four hours after the last injection of estradiol (day 7) animals underwent sterile abdominal surgery to ligate a 3-4 cm segment of both uterine horns. The experimental compound in appropriate solvent (usually 10% ethanol/sesame oil) was injected intraluminally into the ligated segment of one uterine horn and the vehicle alone into the ligated segment of the contralateral horn. Injection volume was limited to 0.1 ml, and care was taken to prevent leakage. A stimulating dose of progesterone (0.8 mg/day) was administered subcutaneously to each rabbit daily for the next three days (days 7, 8 and 9) for the purpose of inducing endometrial proliferation. All animals were sacrificed on day 10 when a segment central to the ligatures was removed and fixed in 10% neutral buffered formalin and submitted for histological processing. Five micron sections stained with hematoxylin and eosin (H&E) were evaluated microscopically for the degree of endometrial glandular proliferation according to the method of McPhail (McPhail, J. Physiol., 83:145 (1934). The percent inhibition of endometrial proliferation for each rabbit was calculated and the mean of the group of five animals recorded.

[2] = tested on: progesterone-induced endometrial proliferation; assay: AntiClauberg test; assay type: in vivo, rabbit; parameters: key to ANTIPROGESTATIONAL Anti-Clauberg: relative oral potency vs. reference compound set to 100; details: for ANTIPROGESTATIONAL Anti-Clauberg: relative potency; for ANTIPROGESTATIONAL Anti-Clauberg / BIOLOGICAL ACTIVITY antiClauberg: CDB-2914 = 100 (assigned); for antiClauberg / oral antiprogestational activity, in words: versus the standard 69B; for BIOLOGICAL ACTIVITY antiClauberg: Table 2; for ANTIPROGESTATIONAL ACTIVITY ANTI-CLAUBERG: estrogen-primed immature rabbits, CDB-2477 = 1.0 (assigned)
Method in brief: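 Immature NZW rabbits were estradiol-primed s.c. for 6 days, then given progesterone 0.8 mg/day s.c. plus compound orally or s.c. for 5 days. Uteri were sectioned and H&E-scored for endometrial glandular proliferation (McPhail). Percent inhibition was calculated per dose versus progesterone-only animals.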

[3] = in vivo
ovulation [4] = details: Dao, et al.; cited from earlier work
ovulation [5] = assay: Antiovulatory test; assay type: in vivo, rat; details: for Antiovulatory MED100: oral, rat, single dose at noon on day of proestrus
Description: Antiovulatory Test […] female rats of the Sprague-Dawley strain weighing 200 to 250 g were maintained under standard laboratory conditions, 14 hours of light and 10 hours of darkness each day. Vaginal washings were obtained daily and evaluated microscopically to establish the estrous cycle of each animal. […] Each dose group consisted of eight rats and one group served as the vehicle control. Animals were dosed at noon on the day of proestrus and sacrificed 24 hours later when ova can usually be visualized in the distended ampulla of the oviduct using a dissecting microscope. The oviducts were excised, an incision made in the distended ampulla and the ova teased out in a drop of water on a microscope slide so that the number shed could be counted. Historically, control animals shed between 12 and 14 ova during each estrous cycle.

[6] = tested on: pregnancy (number and condition of conceptuses); assay: Postcoital test; assay type: in vivo, rat; details: oral; for Postcoital MED100: rat, days 0-3; for postcoital contraceptive activity relative to the standard, in words: days 0-3 of gestation, versus 69B
[7] = target: T1, human isoform A progesterone receptor (Homo sapiens, UniProt P06401); assay: Relative binding affinity, human isoform A progesterone receptor; details: for BINDING AFFINITY Progester, figure in ( ): relative binding affinity of the human isoform A progesterone receptor: Table 2, figure in parentheses
T1 sequence (P06401 1-769 isoform P06401-2): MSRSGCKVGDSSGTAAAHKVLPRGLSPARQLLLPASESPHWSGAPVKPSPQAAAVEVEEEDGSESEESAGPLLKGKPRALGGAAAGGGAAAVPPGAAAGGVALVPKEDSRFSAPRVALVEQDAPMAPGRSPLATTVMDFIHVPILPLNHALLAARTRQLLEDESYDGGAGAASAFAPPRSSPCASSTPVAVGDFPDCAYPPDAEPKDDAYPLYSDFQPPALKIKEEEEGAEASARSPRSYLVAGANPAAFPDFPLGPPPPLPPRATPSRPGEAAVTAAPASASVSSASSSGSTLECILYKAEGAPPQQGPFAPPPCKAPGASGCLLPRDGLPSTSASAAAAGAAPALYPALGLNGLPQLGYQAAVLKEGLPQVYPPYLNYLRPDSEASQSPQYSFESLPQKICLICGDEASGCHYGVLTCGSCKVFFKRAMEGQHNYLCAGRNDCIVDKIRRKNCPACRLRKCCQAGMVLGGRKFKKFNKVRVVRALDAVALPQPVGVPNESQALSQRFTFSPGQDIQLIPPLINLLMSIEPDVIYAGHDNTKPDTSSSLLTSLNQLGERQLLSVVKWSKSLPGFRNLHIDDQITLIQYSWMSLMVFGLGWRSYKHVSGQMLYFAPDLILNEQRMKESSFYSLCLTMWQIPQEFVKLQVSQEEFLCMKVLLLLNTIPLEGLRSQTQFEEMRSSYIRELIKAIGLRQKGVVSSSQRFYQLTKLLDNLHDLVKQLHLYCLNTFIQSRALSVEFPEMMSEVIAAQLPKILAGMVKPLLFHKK

ovulation [8] = details: Baulieu, et al.; cited from earlier work
Cushing's syndrome = details: cited from earlier work
implantation [9] = details: rat; cited from earlier work
implantation [10] = details: guinea pig; cited from earlier work

CN(C)c1ccc(C2CC3(C)C(CCC34OCC4=O)C3CCC4=CC(=O)CCC4=C23)cc1 (stereo not drawn) [Compound 12, 17-Spirooxetano-3′-oxo-11β-[4-(N,N-dimethylamino)phenyl]-19-norpregna-4,9-dien-3-one]
ANTIPROGESTATIONAL Anti-McGinty [1]: 26
ANTIPROGESTATIONAL Anti-Clauberg ([2]; oral): 29

CC(=O)O[C@]1(C(=O)CF)CCC2C3CCC4=CC(=O)CCC4=C3C(c3ccc(N(C)C)cc3)C[C@@]21C (stereo partly drawn) [Compound 13, 17α-acetoxy-21-fluoro-11β-[4-(N,N-dimethylamino)phenyl]-19-norpregna-4,9-diene-3,20-dione]
antiprogestational activity compared with the lead compound / standard, in words [1]: did not show significant differences
ANTIPROGESTATIONAL Anti-McGinty [1]: 103
ANTIPROGESTATIONAL Anti-Clauberg ([2]; oral): 80

CC(=O)O[C@]1(C(=O)CCl)CCC2C3CCC4=CC(=O)CCC4=C3C(c3ccc(N(C)C)cc3)C[C@@]21C (stereo partly shown) [Compound 14A]
antiprogestational activity compared with the lead compound / standard, in words [1]: did not show significant differences
ANTIPROGESTATIONAL Anti-McGinty [1]: 75
ANTIPROGESTATIONAL Anti-Clauberg ([2]; oral): 68

CC(=O)OCC(=O)[C@@]1(OC(C)=O)CCC2C3CCC4=CC(=O)CCC4=C3C(c3ccc(N(C)C)cc3)C[C@@]21C (stereo partly drawn) [Compound 15, 17α,21-diacetoxy-11β-[4-(N,N-dimethylamino)phenyl]-19-norpregna-4,9-diene-3,20-dione]
ANTIPROGESTATIONAL Anti-McGinty [1]: 300
ANTIPROGESTATIONAL Anti-Clauberg ([2]; oral): 279
antiprogestational potency compared to the lead compound (CDB-2914), oral antiClauberg test ([2]; oral, versus CDB-2914): 2.79 times
antiClauberg / oral antiprogestational activity, in words ([2]; oral): greater activity than the standard

CC(=O)O[C@]1(C(=O)CO)CCC2C3CCC4=CC(=O)CCC4=C3C(c3ccc(N(C)C)cc3)C[C@@]21C (stereo partly drawn) [Compound 41, 17α-acetoxy-21-hydroxy-11β-[4-(N,N-dimethylamino)phenyl]-19-norpregna-4,9-diene-3,20-dione]
ANTIPROGESTATIONAL Anti-Clauberg ([2]; oral): 140
antiClauberg / oral antiprogestational activity, in words ([2]; oral): greater activity than the standard

CC(=O)O[C@]1(C(C)=O)CC[C@H]2[C@@H]3CCC4=CC(=O)CCC4=C3[C@@H](c3ccc(N(C)C)cc3)C[C@@]21C [Compound 69B, 17α-acetoxy-11β-(4-N,N-dimethylaminophenyl)-19-norpregna-4,9-diene-3,20-dione, reference compound]
ANTIPROGESTATIONAL ACTIVITY ANTI-MCGINITY [1]: 0.56
ANTIPROGESTATIONAL Anti-McGinty [1]: 100
blood levels following oral administration [3]: Higher blood levels
inhibition of ovulation in the rat (ovulation [4]): inhibit ovulation
Antiovulatory MED100 (ovulation [5]): 1 mg
BIOLOGICAL ACTIVITY antiClauberg ([2]; oral): 100
potency of the standard relative to mifepristone in the antiClauberg test ([2]; oral administration): 3 times
ANTIPROGESTATIONAL ACTIVITY ANTI-CLAUBERG ([2]; oral): 3.27
potency of 69B relative to mifepristone in the antiClauberg test ([2]; oral, 95% C.I.=1.41-7.58, previous studies): 3.27 ×
ANTIPROGESTATIONAL Anti-Clauberg ([2]; oral): 100
Postcoital MED100 [6]: 2 mg/day
BINDING AFFINITY Progester, figure in ( ): relative binding affinity of the human isoform A progesterone receptor [7]: 234

CC(=O)O[C@]1(C(C)=O)CC[C@H]2[C@@H]3CCC4=CC(=O)CCC4=C3[C@@H](c3ccc(N4CCCCC4)cc3)C[C@@]21C [Compound 71, 17α-Acetoxy-11β-[4(N-Piperidino)phenyl]-19-norpregna-4,9-diene-3,20-dione]
Antiovulatory MED100 (ovulation [5]): >16 mg
antiovulatory activity relative to the standard (ovulation [5]; percent of the activity of 69B): about 5%
dose level at which not fully active, antiovulatory (ovulation [5]; versus 69B): > 16 times the MED100 for the standard
BIOLOGICAL ACTIVITY antiClauberg ([2]; oral): 253
antiClauberg / oral antiprogestational activity, in words ([2]; oral): greater activity than the standard
postcoital contraceptive activity relative to the standard, in words [6]: about four times the postcoital contraceptive activity of the standard; also recorded: four times as potent as the standard
Postcoital MED100 [6]: 0.5 mg/day
BINDING AFFINITY Progester, figure in ( ): relative binding affinity of the human isoform A progesterone receptor [7]: 203

CC(=O)OCC(=O)[C@@]1(OC(C)=O)CC[C@H]2[C@@H]3CCC4=CC(=O)CCC4=C3[C@@H](c3ccc(C(C)=O)cc3)C[C@@]21C [Compound 106b, 17α,21-Diacetoxy-11β-(4-acetylphenyl)19-norpregna-4,9-diene-3,20-dione]
BIOLOGICAL ACTIVITY antiClauberg ([2]; oral): 34
BINDING AFFINITY Progester, figure in ( ): relative binding affinity of the human isoform A progesterone receptor [7]: 172

COCC(=O)[C@@]1(OC)CC[C@H]2[C@@H]3CCC4=CC(=O)CCC4=C3[C@@H](c3ccc(N(C)C)cc3)C[C@@]21C [Compound 113a, 17α,21-Dimethoxy-11β-[4-(N,N-dimethylamino)phenyl]-19-norpregna-4,9-diene-3,20-dione]
BIOLOGICAL ACTIVITY antiClauberg ([2]; oral): 229
antiClauberg / oral antiprogestational activity, in words ([2]; oral): greater activity than the standard; also recorded: more than twice as active at the standard
postcoital contraceptive activity relative to the standard, in words [6]: about half as effective as compound 69B
binding affinity for the human progesterone receptor (isoform A), in words [7]: high binding affinity
BINDING AFFINITY Progester, figure in ( ): relative binding affinity of the human isoform A progesterone receptor [7]: 237

COCC(=O)C1(OC(C)=O)CCC2C3CCC4=CC(=O)CCC4=C3C(c3ccc(N4CCCCC4)cc3)CC21C (stereo not drawn) [Compound 123a, 17α-Acetoxy-1113-[4-(N-piperidino)phenyl]-21-methoxy-19-norpregna-4,9-diene-3,20-dione]
BIOLOGICAL ACTIVITY antiClauberg ([2]; oral): 45-83
BINDING AFFINITY Progester, figure in ( ): relative binding affinity of the human isoform A progesterone receptor [7]: 140

CC#C[C@]1(O)CC[C@H]2[C@@H]3CCC4=CC(=O)CCC4=C3[C@@H](c3ccc(N(C)C)cc3)C[C@@]21C [mifepristone]
effect on ovulation in human subjects (ovulation [8]): affect ovulation
antiprogestational activity compared with the lead compound / standard, in words [1]: more potent than the standard
ANTIPROGESTATIONAL ACTIVITY ANTI-MCGINITY [1]: 1.0
inhibition of ovulation in the rat (ovulation [4]): inhibit ovulation
treatment of Cushing's syndrome (Cushing's syndrome; Nieman, et al. 1985): successfully used
antiglucocorticoid activity (Cushing's syndrome; in vivo): very significant antiglucocorticoid activity
ANTIPROGESTATIONAL ACTIVITY ANTI-CLAUBERG ([2]; oral): 1.0
prevention of implantation (implantation [9]): prevent implantation
prevention of implantation (implantation [10]): prevent implantation
